The values below come from PubChem BioAssay AID1915 (Broad Institute, 2009).

Records with an inconclusive call do not appear.

This assay has as its system Group A Streptococcus UMAA2166 viability, BacTiterGlo luminescence, 6 h. As to the kind of experiment: Group A Streptococcus viability loss, dose response, counter-screen for streptokinase expression inhibitor project, luminescence, BacTiterGlo (AID 1915). In general terms: Counterscreens check selectivity or assay interference.

`CN(C)c1ccnc2c[cH-]cc12.[Fe].c1ccc(-[c-]2[c-](-c3ccccc3)[c-](-c3ccccc3)[c-](-c3ccccc3)[c-]2-c2ccccc2)cc1` (configuration not stated): the IC50 was 8.69 µM.
Consider `CNC(CC(C)C)C(=O)NC1C(=O)NC(CC(N)=O)C(=O)NC2C(=O)NC3C(=O)NC(C(=O)NC(C(=O)O)c4cc(O)cc(O)c4-c4cc3ccc4O)C(O)c3ccc(c(Cl)c3)Oc3cc2cc(c3OC2OC(CO)C(O)C(O)C2OC2CC(C)(N)C(O)C(C)O2)Oc2ccc(cc2Cl)C1O` (configuration not stated), for which the IC50 is 0.341 µM.

One may read the IC50 as the concentration that gives 50% inhibition.
